Data from US20030134901A1, “Lipoxin compounds and their use in treating cell proliferative disorders” (priority 1993, published 2003).

Experiments:
A549 cells = experiment: A549 cell proliferation, MTT assay; assay type: cell-based, human; settings: for % inhibition: 10^−7 M, 72 hours at 37° C., mean ± SEM, 3 to 7 experiments
Protocol: A microculture 3,(4,5-dimethylthiazoyl-2-yl) 2,5 (diphenyl-tetrazolium bromide) (MTT) assay, (Marshall, N. J., et al. (1995) A critical assessment of the use of microculture tetrazolium assays to measure cell growth and function. Growth Regul. 5: 69-84.), was used to examine the actions of LXs and other eicosanoids on cell proliferation. A549 cells and fibroblasts from exponential-phase maintenance cultures were counted and dispensed within replicate 96-well culture plates in 100 μl volumes of medium (˜2000 cells/well). Following 24 hours at 37° C., the culture medium was removed, and fresh medium (100 μl) containing either the compounds (5-1000 nM) or vehicle (medium plus 0.15% ethanol) was added to 4 replicates for each condition studied and the culture plates were then incubated for up to 96 hours at 37° C. in a 5% CO2 atmosphere. At the end of this period, 25 μl of freshly prepared MTT in HBSS (5 mg/ml) was added to the wells and the plates were incubated for 4 hours at 37° C. Dye solution was aspirated, wells were washed once with HBSS and dye taken up by the cells was extracted in 100 μl of isopropyl alcohol:1 N HCl (96:4, v/v) and quantitated at 570 nm using a microplate reader (Molecular Devices, Menlo Park, Calif.). In some experiments, cells were grown in 12-well culture plates, treated as above and enumerated using a Neubauer hemocytometer. Viability was assessed routinely using trypan blue exclusion assay. For the A549 cells and fibroblasts, a linear relation was established for the MTT values and cell number within the range of the experiments shown (r=0.995, P<0.005). A549 cells grown for 72 hours in the presence of the compounds (5-1000 nM) or vehicle (0.15% EtOH) were lysed with 0.25 N NaOH and the cellular protein content was determined by applying the Bio-Rad (Richmond, Calif.) microassay method using bovine serum albumin as standard. The mean cellular protein content in resting A549 cells was 46.6±1.5 pg/cell.

[1] = biological target: T1, LXA4 specific binding sites of differentiated HL-60 cells (Homo sapiens, UniProt P25090); experiment: 3H-LXA4 specific binding to differentiated HL-60 cells; settings: for displacement of 3H-LXA4 specific binding: competition, competitor 300 nM where printed
T1 construct: endogenous in cells; host or cells: HL-60 cells differentiated with DMSO, retinoic acid or PMA; intact cells
T1 sequence (P25090 1-351): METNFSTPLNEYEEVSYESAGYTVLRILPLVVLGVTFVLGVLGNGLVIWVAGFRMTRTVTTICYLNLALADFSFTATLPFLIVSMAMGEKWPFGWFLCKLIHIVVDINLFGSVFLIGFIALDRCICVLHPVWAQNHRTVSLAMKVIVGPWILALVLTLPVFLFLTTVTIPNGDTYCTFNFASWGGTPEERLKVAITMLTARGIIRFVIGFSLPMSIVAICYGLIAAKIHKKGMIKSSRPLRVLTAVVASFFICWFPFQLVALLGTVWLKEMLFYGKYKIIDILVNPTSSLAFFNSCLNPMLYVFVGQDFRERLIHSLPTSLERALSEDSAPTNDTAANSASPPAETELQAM
Protocol: Preparation of [11,12-^3H]LXA4. Tritiation of 11,12-acetylenic LXA4 methyl ester was carried out under a custom tritiation service (NET-259:92-2326) by New England Nuclear (Boston, Mass.). Briefly, 11,12-acetylene methyl ester was characterized by UV absorbance and reverse-phase HPLC as in (Nicolaou, K. C. et al. (1985) J. Am. Chem. Soc. 107:7515) and exposed to tritium atmosphere in methylene chloride at room temperature. This incubation was stirred in the presence of Lindlar catalyst (1.0 mg from Fluka Chemicals) for˜1 h. The resulting mixture was stored in methanol and isolated using RP-HPLC. Tritiated products were chromatographed as methyl esters utilizing a gradient HPLC system equipped with a photodiode array rapid spectral detector (Serhan, C. N., Methods in Enzymology: Arachidonate Related Lipid Mediators, in Murphy R. C., Fitzpatrick, F. (eds.), vol. 187. Orlando, Fla., Academic, (1990), p. 167). This mixture contained both [11,12-^3H]LXA4 and [11,12-^3H]-11-trans-LXA4 methyl esters (˜1:3 ratio) as determined by coelution with synthetic standards. After RP-HPLC, fractions containing [11,12-^3H]LXA4 were collected, and extracted into ethyl acetate. The free acid was prepared by LiOH saponification (Fiore, S. et al. (1992) J. Biol. Chem. 267:16168). Material from these fractions, when injected into UV-electrochemical detection HPLC, gave greater than 90% of radioactivity associated with a tetraene-containing product that coeluted with synthetic LXA4. Materials that eluted with the retention time of authentic LXA4 in two HPLC systems were taken for binding experiments. The specific activity calculated for [11,12-^3H]LXA4 was 40.5 Ci/mmole.
Cell cultures and differentiation. HL-60 cells were seeded in RPMI medium supplemented with 100 U/ml penicillin, 100 μg/ml streptomycin, and 10% fetal calf serum (Hyclone, Logan, Utah), incubated at 37° C. with 5% CO2 atmosphere in 250 ml flasks. Individual flasks containing ˜[…] next received dimethyl sulfoxide (DMSO) (1.12% v/v, 120 h) or retinoic acid (RA) (1 μM, 120 h) or phorbol myristate acetate (PMA) (20 nM, 48 h). Before performing binding assays, cells were washed twice in phosphate buffered saline (PBS), Ca^2+- and Mg^2+-free, enumerated and suspended at 20×10^6 cells/ml in Tris buffer (10 mM), pH 7.4 (Fiore, S. et al.(1992) J. Biol. Chem. 267:16168). Nitro blue tetrazolium reduction was performed to monitor induction of polymorphonuclear phenotype as in (Imaizumi, M. and Breitman, T. R. (1986) Blood 67:1273), and cell adherence was determined for induction of macrophage-like phenotype (Collins, S. J. (1987) Blood 70:1273). Human umbilical vein endothelial cells (HUVEC) maintained in culture third passage were obtained from Dr. M. Gimbrone (Brigham and Women's Hospital Department of Pathology).
Ligand binding. ^3H-LXA4 and ^3H-LTB4 binding was performed essentially as in Fiore, S. et al.(1992) J. Biol. Chem. 267:16168. After suspending cells in Tris buffer 10 mM (pH 7.4, Ca^2+ 2.5 mM, Mg^2+ 1.2 mM), aliquots (0.5 ml) were incubated (20 min at 4° C.) with ^3H- ligands alone (0.3 nM) or in the presence of increasing concentrations of homoligands or other compounds (3-300 nM). The incubations were rapidly centrifuged (60 sec, 12,000 g) on silicon oil (d=1.028), and cell-associated radioactivity was determined by liquid scintillation counting (Wallac 1409, Pharmacia, Piscataway, N.J.). Binding experiments with HUVEC cells were performed in 12 well plates with 3.5×10^5 cells/well. After 10 min, wells were washed twice with PBS and cell-associated label was recovered by adding glacial acetic acid (0.5 ml). Results obtained from these assays were submitted for further analysis using the Ligand program (Elsevier-Biosoft, Cambridge, UK).

PMA-treated HL-60 cells = experiment: Lipoxin metabolism / bio-half-life assay with phorbol ester-treated HL-60 cells; assay type: in vitro ADME, human; settings: at times up to two hours
Protocol: HL-60 cells were purchased from American Type Culture Collection (Rockville, Md.), and other cell culture reagents were from GIBCO (Grand Island, N.Y.). Versene (EDTA) was from Whittaker Bioproducts (Walkersville, Md.). Synthetic 11,12-acetylenic LXA4 methyl ester and LXs were from Cascade Biochemical (Reading, U.K.). 15(S)-15-m-PGE1, PGE1, and 5-HETE were from Cayman Chemical Co. (Ann Arbor, Mich.). [11,12-^3H]LXA4 was prepared from 11,12-acetylenic LXA4 using Lindlar catalyst as a custom tritiation (NET-259, lot 0 2793-275, New England Nuclear, Boston, Mass.). Tritiated products were isolated using RP-HPLC (Fiore et al. (1992) J. Biol. Chem. 267:16168; Serhan, C. N. (1990) Meth. Enzymol. 187:167). Methoxyamine and NAD were from Sigma Chemical Company (St. Louis, Mo.). Manganese dioxide and Adams reagent were from Aldrich Chemical Co. (Milwaukee, Wis.).
Human PMN were obtained from healthy volunteers by gradient centrifugation of heparinized fresh venous blood (Böyum, A. ([…]) Scand. J. Clin. Lab. Invest. 21:77). HL-60 cells were seeded in RPMI supplemented with penicillin (100 U/ml), streptomycin (100 μ/ml), fetal bovine serum (10%) (Hyclone, Logan, Utah) and incubated (37° C. with 5% CO2 atmosphere) in plastic 250 ml flasks. Individual flasks containing […] HL-60 cells/ml were incubated in the presence or absence of phorbol 12-myristate 13-acetate (PMA) (10 or 16 nM, 24-27 h) and adherence was monitored for induction of macrophage-like phenotype as in Collins, S. J. (1987) Blood 70:1233. […]
Incubations with eicosanoids were stopped with cold methanol containing either PGB2 or 5-HETE as internal standards (5-HETE was used when 15-oxo-ETE was quantified). […] Formation of 15-oxo-ETE by 100,000 g supernatants (cf. Agins, A. P. et al. (1987) Agents Actions 21:397; Xun, C-Q. et al.(1991) Biochem. J. 279:553; and Sok, D-E. et al. (1988) Biochem. Biophys. Res. Commun. 156:524) was quantified after RP-HPLC using an ODS column (4.6 mm×25 cm) eluted with methanol/H2O/acetic acid (70:30:0.01, v/v/v) monitored at 280 nm with a flow rate of 1 ml/min. […] On-line spectra were recorded using a diode array detector (Hewlett-Packard 1040M series II) equipped with HPLC^3D ChemStation software (DOS series). […]
The “bio-half-life” of compounds 1-8 was assessed using phorbol ester-treated human promyelocytic leukemia (HL-60) cells as described in Example 2. […]

Compound	% inhibition (A549 cells) [%]	displacement of 3H-LXA4 specific binding [1]	also measured
CCCCC[C@@H](O)/C=C/C=C\C=C\C=C\C(O)C(O)CCCC(=O)O (stereo in doubt) [15-epi-LXA4, 15R-5,6,15-trihydroxy-7,9,13-trans-11-cis-eicosatetraenoic acid]	20.1 ± 1.9		inhibition of A549 cell growth compared with LXA4 (A549 cells; equimolar levels (100 nM)): to a similar extent as LXA4
CCCCC[C@@H](O)C(O)/C=C/C=C/C=C\C=C\C(O)CCCC(=O)O (stereo in doubt) [15-epi-LXB4, 15R-5,14,15-trihydroxy-6,10,12-trans-8-cis-eicosatetraenoic acid]	79.3 ± 0.3		inhibition proliferation (A549 cells; equimolar levels (100 nM), Table 1): ~80%
CCCCC/C=C\C\C=C/C=C/C=C/[C@@H](SC[C@H](NC(=O)CC[C@H](N)C(=O)O)C(=O)NCC(=O)O)[C@@H](O)CCCC(=O)O [LTC4]			decrease of 3H-LXA4 specific binding ([1]; added in 3 log molar excess): ~30%
COc1ccc(/C=C/CCCCOc2cccc(OCCCCC(=O)O)c2CCC(=O)O)cc1 [ONO-4057]		did not displace	
cyclohexyl-LXA4 [compound 4]			recovery in the incubation medium (bio-half-life) (PMA-treated HL-60 cells): quantitatively recovered
trihydroxyheptanoic acid (methyl ester)		Neither LXB4, LTB4, nor trihydroxyheptanoic acid (methyl ester) (300 nM) were able to displace	
